Patent US20230265151A1, “GIP/GLP1 CO-AGONIST COMPOUNDS” (priority 2020, published 2023)
Read-outs that look alike come from different tables or passages of the source. *1 amine or outer side, *2 acyl side, *3 side chain or, on linkers, in order; H or OH if unused. Where a SMILES comes first, the peptide text is derived from it. Side-chain parts run from the residue outwards. [ ]: non-standard residue; d: D form. The star is where a group is joined. αMePhe(2-F) = C[C@](N)(Cc1ccccc1F)C(=O)O; γGlu = O=C(O)[C@H](CCC(=O)[*:2])N[*:1]; C14 diacid = O=C(O)CCCCCCCCCCCCC(=O)*; αMeY = C[C@](N)(Cc1ccc(O)cc1)C(=O)O; αMeL = CC(C)C[C@](C)(N)C(=O)O; Orn = NCCC[C@H](N)C(=O)O; AEEA = NCCOCCOCC(=O)O; Aib = CC(C)(N)C(=O)O

Legend:
Type in all cases: cell-based
hGIPR = biological target: T1, hGIPR (Homo sapiens, UniProt P48546); experiment: Functional cAMP formation (HTRF) in HEK-293 clonal cells expressing hGIPR, 0.1% bovine casein, without or with 1.0% human serum albumin; details: for EC50: geometric mean
T1 construct: expressed in transfected cells
T1 sequence (P48546 22-466): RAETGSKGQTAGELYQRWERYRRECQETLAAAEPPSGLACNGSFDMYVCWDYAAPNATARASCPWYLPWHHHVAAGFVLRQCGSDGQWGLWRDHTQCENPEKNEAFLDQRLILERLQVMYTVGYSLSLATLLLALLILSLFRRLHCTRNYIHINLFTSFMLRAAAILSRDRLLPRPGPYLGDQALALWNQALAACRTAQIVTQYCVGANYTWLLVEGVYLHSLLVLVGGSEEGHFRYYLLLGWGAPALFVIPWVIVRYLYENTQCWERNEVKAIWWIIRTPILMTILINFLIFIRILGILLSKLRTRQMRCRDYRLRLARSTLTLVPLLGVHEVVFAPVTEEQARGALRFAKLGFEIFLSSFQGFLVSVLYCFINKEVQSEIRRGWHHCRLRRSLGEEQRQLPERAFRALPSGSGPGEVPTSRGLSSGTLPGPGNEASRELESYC
How it was run: (§1)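 Cells were stimulated with peptide for 30 min at 37° C, then lysed in buffer carrying cAMP-d2 and anti-cAMP Eu3+-cryptate for a competitive HTRF read after at least 60 min at room temperature. The 665/620 nm ratio was converted to nM cAMP against a standard curve.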

hGCGR = biological target: T2, hGCGR (Homo sapiens, UniProt P47871); experiment: Functional cAMP formation (HTRF) in HEK-293 clonal cells expressing hGCGR, 0.1% bovine casein, without or with 1.0% human serum albumin; details: geometric mean
T2 construct: expressed in transfected cells
T2 sequence (P47871 26-477): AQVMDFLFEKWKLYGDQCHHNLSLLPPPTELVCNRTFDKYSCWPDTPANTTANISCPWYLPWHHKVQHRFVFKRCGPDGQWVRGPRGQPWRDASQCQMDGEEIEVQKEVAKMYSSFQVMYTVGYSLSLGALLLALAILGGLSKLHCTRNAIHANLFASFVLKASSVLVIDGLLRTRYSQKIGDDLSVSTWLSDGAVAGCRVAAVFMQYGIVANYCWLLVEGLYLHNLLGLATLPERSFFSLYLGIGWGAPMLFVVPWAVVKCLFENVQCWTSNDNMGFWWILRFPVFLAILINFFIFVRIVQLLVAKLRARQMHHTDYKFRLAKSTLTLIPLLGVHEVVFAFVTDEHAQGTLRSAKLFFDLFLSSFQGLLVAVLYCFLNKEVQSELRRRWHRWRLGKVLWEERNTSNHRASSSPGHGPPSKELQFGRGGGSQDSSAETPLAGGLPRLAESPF
How it was run: as §1

hGLP-1R = hGLP-1R (Homo sapiens, UniProt P43220); experiment: Functional cAMP formation (HTRF) in HEK-293 clonal cells expressing hGLP-1R, 0.1% bovine casein, without or with 1.0% human serum albumin; set-up: expressed in transfected cells; details: for EC50: 37° C., geometric mean, read-out: hGLP-1R EC50, nM (SEM, n)
Chain of hGLP-1R (P43220 24-463): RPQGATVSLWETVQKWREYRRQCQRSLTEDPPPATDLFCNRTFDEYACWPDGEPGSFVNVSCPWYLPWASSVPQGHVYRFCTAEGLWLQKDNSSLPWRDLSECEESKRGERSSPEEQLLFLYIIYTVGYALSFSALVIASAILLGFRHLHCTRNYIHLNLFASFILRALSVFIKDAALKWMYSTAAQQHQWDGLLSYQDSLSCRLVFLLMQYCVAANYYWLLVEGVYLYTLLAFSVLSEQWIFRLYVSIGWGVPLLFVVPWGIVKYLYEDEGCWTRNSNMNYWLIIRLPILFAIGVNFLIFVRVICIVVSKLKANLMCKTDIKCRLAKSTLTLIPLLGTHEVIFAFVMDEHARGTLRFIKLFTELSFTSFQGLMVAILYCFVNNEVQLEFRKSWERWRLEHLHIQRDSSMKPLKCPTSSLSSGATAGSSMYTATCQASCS
How it was run: as §1

SMILES	Emax (hGIPR; HEK293, read-out: hGIPR Emax, % ± SEM, 0.1% bovine casein and 1.0% human serum albumin, 37° C., percent of maximal response to GIP(1-42)NH2)	Emax (hGIPR; HEK293, read-out: hGIPR Emax, % ± SEM, percent of maximal response to GIP(1-42)NH2, 37° C., 0.1% bovine casein, arithmetic mean)	EC50 (hGIPR; hGIPR EC50, nM (SEM, n), 0.1% bovine casein and 1.0% human serum albumin, 37° C.)	EC50 (hGCGR; hGCGR EC50, nM (SEM, n), 0.1% bovine casein and 1.0% human serum albumin, 37° C.)	EC50 (hGCGR; hGCGR EC50, nM (SEM, n), cAMP, incubated at 37° C., 0.1% bovine casein (no human serum albumin))	Emax (hGLP-1R; HEK293, read-out: hGLP-1R Emax, % ± SEM, 0.1% bovine casein and 1.0% human serum albumin, 37° C., percent of maximal response to GLP-1(7-36)NH2)	Emax (hGIPR; HEK293, 0.1% bovine casein and 1.0% human serum albumin, 37° C., percent of maximal response to GIP(1-42)NH2, read-out: hGIPR Emax, % ± SEM)	Emax (hGIPR; HEK293, cAMP, 37° C., 0.1% bovine casein, percent of maximal response to GIP(1-42)NH2, arithmetic mean, read-out: hGIPR Emax, % ± SEM)	EC50 (hGIPR; cAMP, 37° C., 0.1% bovine casein (no human serum albumin), read-out: hGIPR EC50, nM (SEM, n))	EC50 (hGCGR; 0.1% bovine casein and 1.0% human serum albumin, 37° C., read-out: hGCGR EC50, nM (SEM, n))	EC50 (hGCGR; cAMP, 37° C., 0.1% bovine casein (no human serum albumin), read-out: hGCGR EC50, nM (SEM, n))	EC50 (hGLP-1R; 0.1% bovine casein and 1.0% human serum albumin)	EC50 (hGLP-1R; cAMP, 0.1% bovine casein (no human serum albumin))
CC[C@H](C)[C@H](NC(=O)[C@H](CCCN)NC(=O)[C@H](CC(=O)O)NC(=O)[C@H](CC(C)C)NC(=O)[C@](C)(CC(C)C)NC(=O)[C@@H](NC(=O)[C@H](CO)NC(=O)[C@H](Cc1ccncc1)NC(=O)[C@H](CC(=O)O)NC(=O)[C@H](CO)NC(=O)[C@@H](NC(=O)[C@](C)(Cc1ccccc1F)NC(=O)[C@@H](NC(=O)CNC(=O)[C@H](CCC(=O)O)NC(=O)C(C)(C)NC(=O)[C@@H](N)Cc1ccc(O)cc1)[C@@H](C)O)[C@@H](C)O)[C@@H](C)CC)C(=O)N[C@@H](C)C(=O)N[C@@H](CCC(N)=O)C(=O)NC(C)(C)C(=O)N[C@@H](CCC(=O)O)C(=O)N[C@@H](Cc1ccccc1)C(=O)N[C@H](C(=O)N[C@@H](CCCCNC(=O)COCCOCCNC(=O)COCCOCCNC(=O)CCCCCCCCCCCCC(=O)O)C(=O)N[C@@](C)(Cc1ccc(O)cc1)C(=O)N[C@@H](CC(C)C)C(=O)N[C@H](C(=O)N[C@@H](CCC(=O)O)C(=O)NCC(=O)NCC(=O)N1CCC[C@H]1C(=O)N[C@@H](CO)C(=O)N[C@@H](CO)C(=O)NCC(=O)N[C@@H](C)C(=O)N1CCC[C@H]1C(=O)N1CCC[C@H]1C(=O)N1CCC[C@H]1C(=O)N[C@@H](CO)C(=O)N[C@@H](CCCCNC(=O)COCCOCCNC(=O)COCCOCCNC(=O)CCCCCCCCCCCCC(=O)O)C(N)=O)[C@@H](C)CC)[C@@H](C)CC [Example 194]	80.7 ± 7.81%	93.1 ± 1.05%	1.24 nM	> 9950 nM	> 9950 nM	109 ± 10.5%	–	–	–	–	–	–	–
CC[C@H](C)[C@H](NC(=O)[C@H](CC(C)C)NC(=O)[C@](C)(Cc1ccc(O)cc1)NC(=O)[C@@H](CCC(=O)O)NC(=O)[C@@H](NC(=O)[C@H](Cc1ccccc1)NC(=O)[C@H](CCCCNC(=O)COCCOCCNC(=O)COCCOCCNC(=O)CC[C@H](NC(=O)CCCCCCCCCCCCC(=O)O)C(=O)O)NC(=O)C(C)(C)NC(=O)[C@H](CCC(N)=O)NC(=O)[C@H](C)NC(=O)[C@H](CCCCNC(=O)COCCOCCNC(=O)COCCOCCNC(=O)CC[C@H](NC(=O)CCCCCCCCCCCCC(=O)O)C(=O)O)NC(=O)[C@H](CCCN)NC(=O)[C@H](CC(=O)O)NC(=O)[C@H](CC(C)C)NC(=O)[C@](C)(CC(C)C)NC(=O)[C@@H](NC(=O)[C@H](CO)NC(=O)[C@H](Cc1ccc(OC)cc1)NC(=O)[C@H](CC(=O)O)NC(=O)[C@H](CO)NC(=O)[C@@H](NC(=O)[C@](C)(Cc1ccccc1F)NC(=O)[C@@H](NC(=O)CNC(=O)[C@H](CCC(=O)O)NC(=O)C(C)(C)NC(=O)[C@@H](N)Cc1ccc(O)cc1)[C@@H](C)O)[C@@H](C)O)[C@@H](C)CC)[C@@H](C)CC)C(=O)N[C@@H](CCC(=O)O)C(=O)NCC(=O)NCC(=O)N1CCC[C@H]1C(=O)N[C@@H](CO)C(=O)N[C@@H](CO)C(=O)NCC(=O)N[C@@H](C)C(=O)N1CCC[C@H]1C(=O)N1CCC[C@H]1C(=O)N1CCC[C@H]1C(=O)N[C@@H](CO)C(N)=O [Example 259] (H-Y[Aib]EGT[αMePhe(2-F)]TSDY(Me)SI[αMeL]LD[Orn]K([AEEA-AEEA-γGlu-C14 diacid])AQ[Aib]K([AEEA-AEEA-γGlu-C14 diacid])FI[dE][αMeY]LIEGGPSSGAPPPS-NH2)	–	–	–	–	–	–	66.4%	111%	0.0198 nM	> 9950 nM	> 9950 nM	28.9 nM	0.362 nM
